ChEMBL document CHEMBL1201862, “PubChem BioAssay data set” (2004)
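Interpolation was linear, between the two tested concentrations surrounding the appropriate level; five concentrations were tested over 48 hours in 96-well plates. GI50 is the concentration that inhibits growth by half.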 Calls of active or inactive are those of the source. No stated cut-off is given here; in the data, active = GI50 up to about 1.1 µM and inactive = higher.

Columns and labels:
Test in all cases: NCI anticancer screen, dose series, 48 h
A549 = system: A549
CAKI-1 = system: CAKI-1
EKVX = system: EKVX
HL-60 = system: HL-60
KM12 = system: KM12
LOX IMVI = system: LOX IMVI
NCI-H460 = system: NCI-H460
OVCAR-5 = system: OVCAR-5
RPMI-8226 = system: RPMI-8226
SF-268 = system: SF-268
SK-MEL-28 = system: SK-MEL-28
SK-MEL-5 = system: SK-MEL-5
SN12C = system: SN12C
SNB-19 = system: SNB-19
UACC-257 = system: UACC-257
UO-31 = system: UO-31
SR = system: SR

Compound	GI50 (A549)	GI50 (CAKI-1)	GI50 (EKVX)	GI50 (HL-60)	GI50 (KM12)	GI50 (LOX IMVI)	GI50 (NCI-H460)	GI50 (OVCAR-5)	GI50 (RPMI-8226)	GI50 (SF-268)	GI50 (SK-MEL-28)	GI50 (SK-MEL-5)	GI50 (SN12C)	GI50 (SNB-19)	GI50 (UACC-257)	GI50 (UO-31)	GI50 (SR)
COC(=O)C[C@H]1CCC2(OCCO2)[C@]1(C)C(=O)OC	> 100 µM (inactive)	> 100 µM (inactive)	> 100 µM (inactive)	> 100 µM (inactive)	> 100 µM (inactive)	> 100 µM (inactive)	> 100 µM (inactive)	> 100 µM (inactive)	> 100 µM (inactive)	> 100 µM (inactive)	> 100 µM (inactive)	> 100 µM (inactive)	> 100 µM (inactive)	> 100 µM (inactive)	> 100 µM (inactive)	> 100 µM (inactive)	–
CC(C)(CN1CCCCC1)C(=O)/C=C/c1ccc(Br)cc1	2.86 µM (inactive)	0.887 µM (active)	2.12 µM (inactive)	2.4 µM (inactive)	3 µM (inactive)	2.03 µM (inactive)	–	2.78 µM (inactive)	3.07 µM (inactive)	2.34 µM (inactive)	3.99 µM (inactive)	4.67 µM (inactive)	2.57 µM (inactive)	2.01 µM (inactive)	6.31 µM (inactive)	–	2.45 µM (inactive)
COc1ccc([C@@H]2CC(=O)NCCCCNCCCN2)cc1	> 100 µM (inactive)	> 100 µM (inactive)	> 100 µM (inactive)	> 100 µM (inactive)	> 100 µM (inactive)	–	> 100 µM (inactive)	> 100 µM (inactive)	> 100 µM (inactive)	> 100 µM (inactive)	> 100 µM (inactive)	> 100 µM (inactive)	> 100 µM (inactive)	> 100 µM (inactive)	> 100 µM (inactive)	> 100 µM (inactive)	> 100 µM (inactive)
CC1(C)OC2C(CCP(=O)(O)O)OC(c3nc(C(N)=O)cs3)C2O1 (centres undefined)	> 100 µM (inactive)	> 100 µM (inactive)	> 100 µM (inactive)	–	> 100 µM (inactive)	> 100 µM (inactive)	> 100 µM (inactive)	> 100 µM (inactive)	> 100 µM (inactive)	> 100 µM (inactive)	> 100 µM (inactive)	–	> 100 µM (inactive)	> 100 µM (inactive)	> 100 µM (inactive)	> 100 µM (inactive)	–
C[C@]12CC[C@H](OC(=O)Cc3ccc(N(CCCl)CCCl)cc3)CC1CC[C@@H]1C2CC[C@]2(C)NC(=O)CCC12 (some centres undefined)	14.6 µM (inactive)	3.92 µM (inactive)	–	2.48 µM (inactive)	11 µM (inactive)	13.2 µM (inactive)	5.16 µM (inactive)	–	4.16 µM (inactive)	9.64 µM (inactive)	15 µM (inactive)	15.6 µM (inactive)	5.38 µM (inactive)	13 µM (inactive)	13.2 µM (inactive)	29.3 µM (inactive)	–
CCCCCCCCCCCCCC(=O)OCC1OC(n2cc(F)c(=O)[nH]c2=O)C(N)C(OC(=O)CCCCCCCCCCCCC)C1O (centres undefined)	> 100 µM (inactive)	> 100 µM (inactive)	> 100 µM (inactive)	> 100 µM (inactive)	> 100 µM (inactive)	> 100 µM (inactive)	> 100 µM (inactive)	–	> 100 µM (inactive)	> 100 µM (inactive)	> 100 µM (inactive)	> 100 µM (inactive)	> 100 µM (inactive)	> 100 µM (inactive)	> 100 µM (inactive)	> 100 µM (inactive)	> 100 µM (inactive)
Cc1cc(Cl)cc2c1NC(=O)C2(O)CC(=O)c1ccc(F)cc1 (centres undefined)	30.2 µM (inactive)	> 100 µM (inactive)	> 100 µM (inactive)	–	> 100 µM (inactive)	27.7 µM (inactive)	83.8 µM (inactive)	> 100 µM (inactive)	27.2 µM (inactive)	67 µM (inactive)	37.2 µM (inactive)	–	27.2 µM (inactive)	> 100 µM (inactive)	37.3 µM (inactive)	47.6 µM (inactive)	–
COC(=O)[C@@H](C)[C@H]1CC[C@@](C)(CCC2=C(C)CC3C=C(C)CCC3C2(C)C)OO1 (some centres undefined)	1.6 µM (inactive)	1.34 µM (inactive)	1.64 µM (inactive)	0.212 µM (active)	1.42 µM (inactive)	–	1.5 µM (inactive)	1.87 µM (inactive)	1.65 µM (inactive)	1.85 µM (inactive)	1.65 µM (inactive)	1.49 µM (inactive)	1.06 µM (active)	1.72 µM (inactive)	2.99 µM (inactive)	1.45 µM (inactive)	1.57 µM (inactive)
O=C(O)CCCSC(=O)Nc1ccc(/N=N/c2ccccc2)cc1	> 100 µM (inactive)	> 100 µM (inactive)	> 100 µM (inactive)	–	> 100 µM (inactive)	> 100 µM (inactive)	> 100 µM (inactive)	> 100 µM (inactive)	> 100 µM (inactive)	56.1 µM (inactive)	> 100 µM (inactive)	–	> 100 µM (inactive)	> 100 µM (inactive)	> 100 µM (inactive)	> 100 µM (inactive)	> 100 µM (inactive)
Cc1cc(C)c2[s+]snc2c1	95.1 µM (inactive)	93.8 µM (inactive)	> 100 µM (inactive)	18.3 µM (inactive)	95.7 µM (inactive)	37.8 µM (inactive)	75.7 µM (inactive)	> 100 µM (inactive)	–	60.5 µM (inactive)	62.1 µM (inactive)	> 100 µM (inactive)	47.1 µM (inactive)	> 100 µM (inactive)	72.3 µM (inactive)	39.5 µM (inactive)	23.8 µM (inactive)
CC(=O)O[C@H]1C(=O)[C@@]2(C)C(C(OC(=O)c3ccccc3)C3[C@@H](O)C(OC(=O)[C@@H](O)[C@H](NC(=O)c4ccccc4)c4ccc(C(F)(F)F)cc4)C(C)=C1C3(C)C)[C@]1(OC(C)=O)CO[C@@H]1C[C@@H]2O (some centres undefined)	17.9 µM (inactive)	> 25 µM (inactive)	> 25 µM (inactive)	7.98 µM (inactive)	–	16.1 µM (inactive)	23.9 µM (inactive)	> 25 µM (inactive)	10.3 µM (inactive)	> 25 µM (inactive)	> 25 µM (inactive)	8.26 µM (inactive)	> 25 µM (inactive)	> 25 µM (inactive)	> 25 µM (inactive)	18.1 µM (inactive)	8.43 µM (inactive)
CCOC1=C2C(C)(CCC3[C@@]4(C)C=CC(=O)C(C)(C)C4CC(O)[C@@]23C)C(c2ccoc2)C1=O (some centres undefined)	21.1 µM (inactive)	20.7 µM (inactive)	18.5 µM (inactive)	14.4 µM (inactive)	15.2 µM (inactive)	14.9 µM (inactive)	13.7 µM (inactive)	19.2 µM (inactive)	15.6 µM (inactive)	24.2 µM (inactive)	15.6 µM (inactive)	15.2 µM (inactive)	25.1 µM (inactive)	27.2 µM (inactive)	23.7 µM (inactive)	14.5 µM (inactive)	–
